Here are results for one compound from EP2511272B1, “Synthetic analogues of abscisic acid with anti-inflammatory and insulin release stimulation effects on human cells” (Universita' degli Studi di Genova, priority 2011, dated 2012).

The subject of the assay is human granulocytes. The experiment in a line: Determination of intracellular cAMP levels (inhibition of ABA-induced cAMP increase). Type of assay: cell-based. Here is the method: Human granulocytes, after being incubated overnight (ON) in DMEM/F12 supplemented with 10% of foetal bovine serum (FCS), penicillin (50 units/ml) and streptomycin (50 µg/ml) (DMEM/F12 complete), were centrifuged at 200xg for 5 min and were then resuspended in HBSS (Hanks' Balanced Salt Solution) with calcium and magnesium (15 x 10^6 cells /200 µl) and preincubated for 5 minutes at 25 °C in the presence of 10 µM of phosphodiesterase inhibitor 4-[(3-butoxy-4-methoxyphenyl)-methyl]-2-imidazolidinone (Ro-20-1724). Two hundred (200) µl of suspension were then drawn and were incubated for 1 minute with 1 µM ABA (Sigma-Aldrich) either alone, or in the presence of decreasing concentrations (from 50 µM to 0.01 nM) of test compounds obtained according to the preceding examples. The reaction was terminated by the addition of 13 µl of perchloroacetic acid (PCA) to the end concentration of 0.6 M at 4 °C.
The cell lysates were centrifuged for 5 min at 17,000 x g at 4 °C and the supernatant was adjusted at pH 7.5 with 3 M potassium carbonate (K2CO3). The reaction led to the development of gas CO2 and the formation of a white precipitate of potassium perchlorate (KClO4), which was removed by a 5-minute centrifugation at 17,000xg at 4 °C.
Intracellular concentration of cAMP was determined by means of the competitive radioimmunological test [^3H]cAMP assay system (Amersham, GE Healthcare), following manufacturer's instructions..
The experiments were carried out three times, in triplicate.
Tests were carried out on human granulocytes according to the above explained procedure, in which the production of cAMP was compared to a group of control cells in case of treatment with ABA 1 µM and with ABA 1 µM + tested compound 50 µM.
Background: Changes in cAMP serve as a functional read-out for many G protein-coupled receptors.

For `CC(=C/C(=O)O)/C=C/C1(O)C(C)(C)CC(=O)C2OC21C` (single isomer, unassigned) [Example 1, trans, 2'α,3'α-dihydro-2'α,3'α-epoxyabscisic acid], for the setting “ABA 1 µM + tested compound 50 µM, read-out: inhibition (production of cAMP)”, the inhibition (commonly the relative decrease from the control value, in per cent) at 50 µM turned out to be 100%. For the same compound, for the setting “cAMP increase induced by 1 µM ABA, compound 0.01 nM”, the inhibition at 10 pM worked out at 0%. The compound also had an inhibition at 0.0001 µM (cAMP increase induced by 1 µM ABA, compound 0.1 nM) of 25%. Besides, the inhibition at 0.001 µM (cAMP increase induced by 1 µM ABA, compound 1 nM) came out at 57%. Under “cAMP increase induced by 1 µM ABA, compound 100 nM”, this compound registered an inhibition at 0.1 µM of 100%. The compound further displayed an inhibition at 1 µM (cAMP increase induced by 1 µM ABA, compound 1 µM) of 100%. Moreover, where the note is “cAMP increase induced by 1 µM ABA, compound 5 µM”, the inhibition at 5 µM turned out to be 100%. Where the note is “cAMP increase induced by 1 µM ABA, compound 10 µM”, the inhibition at 10 µM was 100%. The concentration for half-maximal inhibition (IC50) (as a rule, the point on the concentration scale where inhibition reaches its midpoint) (increase in cAMP concentration induced by 1 µM ABA) was approximately 1 nM.
